Experimental data: patent US12667574B2, “Paraxanthine-based bioactive composition and method of use thereof” (PX ING, LLC, priority 2021, dated 2026)

Legend:
Conditions in all cases: oral 14 days
[1] = tested on: male Swiss Albino Wistar rats; test: Walter Morris Maze test (Example 3); type: in vivo
Protocol: Distilled water was provided ad libitum. […] Ltd (Bangalore, India). […] The last dose on day 14 was given 1 hour prior to testing. The Walter Morris Maze test consisted of a circular pool in a room with geometric shapes on the wall serving as spatial cues. The pool, which is 70 cm in diameter and painted with black color, filled with 13 cm depth of 25±1° C. water. A platform (6 cm diameter) was placed into one quadrant of the pool and submerged 1 cm below the water surface. For the training, all rats were trained to locate the submerged platform in constant location. The training day consisted of four trials. […] The rat was allowed to remain on the platform for 15 seconds before being dried off and later was transferred to a holding cage.

[2] = tested on: brain derived neuro factor, BDNF; test: BDNF level, neuroplasticity (Example 3); type: in vivo, rats
Protocol: (§1) Distilled water was provided ad libitum. […] Ltd (Bangalore, India).
(§2) 0.5% Carboxy Methyl Cellulose sodium was used as vehicle and the test item formulations were prepared daily. […] The last dose on day 14 was given 1 hour prior to testing.

acetylcholine (Ach) = test: Acetylcholine concentration (Example 3); type: in vivo, rats
Protocol: as §1, §2

dopamine (dopa) = test: Dopamine concentration (Example 3); type: in vivo, rats
Protocol: as §1, §2

glutathione (GSH) = test: Glutathione level (Example 3); type: in vivo, rats
Protocol: as §1, §2

C[N+](C)(C)CCOP(=O)([O-])OC[C@H](O)CO [alpha-GPC, L-Alpha glycerylphosphorylcholine, reference compound]
escape latency ([1]; old rats (16-month-old)): 39.83 ± 0.98 s | escape latency ([1]; young rats (8-week-old)): 34.83 ± 1.33 s | BDNF ([2]; old rats): 881.70 ± 10.41 µg/mL | BDNF ([2]; young rats): 881.70 ± 10.41 µg/mL | acetylcholine (Ach) concentration (acetylcholine (Ach); old rats): 56.89±1.76 U/mL | acetylcholine (Ach) concentration (acetylcholine (Ach); young rats): 65.89±1.64 U/mL | dopamine (dopa) concentration (dopamine (dopa); old rats): 506.35 ± 2.82 ng/L | dopamine (dopa) concentration (dopamine (dopa); young rats): 563.55 ± 7.98 ng/L | glutathione (GSH) level (glutathione (GSH); old rats): 24.72 ± 0.48 µg/mL | glutathione (GSH) level (glutathione (GSH); young rats): 31.72 ± 0.53 µg/mL

Cn1cnc2c1c(=O)[nH]c(=O)n2C [theobromine, reference compound]
escape latency ([1]; old rats (16-month-old)): 42.33 ± 1.63 s | escape latency ([1]; young rats (8-week-old)): 37.67 ± 2.07 s | acetylcholine (Ach) concentration (acetylcholine (Ach); old rats): 56.67±1.32 U/mL | acetylcholine (Ach) concentration (acetylcholine (Ach); young rats): 64.28±0.88 U/mL | dopamine (dopa) concentration (dopamine (dopa); old rats): 503.03 ± 9.29 ng/L | dopamine (dopa) concentration (dopamine (dopa); young rats): 552.73 ± 10.42 ng/L | glutathione (GSH) level (glutathione (GSH); old rats): 24.53 ± 0.54 µg/mL | glutathione (GSH) level (glutathione (GSH); young rats): 31.28 ± 0.78 µg/mL

Cn1c(=O)c2[nH]cnc2n(C)c1=O [theophylline, reference compound]
escape latency ([1]; old rats (16-month-old)): 43.83 ± 1.47 s | escape latency ([1]; young rats (8-week-old)): 38.00 ± 1.90 s | acetylcholine (Ach) concentration (acetylcholine (Ach); old rats): 55.33±1.05 U/mL | acetylcholine (Ach) concentration (acetylcholine (Ach); young rats): 63.89±1.64 U/mL | dopamine (dopa) concentration (dopamine (dopa); old rats): 495.82 ± 10.86 ng/L | dopamine (dopa) concentration (dopamine (dopa); young rats): 543.78 ± 6.11 ng/L | glutathione (GSH) level (glutathione (GSH); old rats): 24.23 ± 0.63 µg/mL | glutathione (GSH) level (glutathione (GSH); young rats): 29.78 ± 1.07 µg/mL
